Source: the supplement of paper PMC13380429

Columns and labels:
Conditions in all cases: 72 h
Caco-2 [1] = assay: relative viability EC50 (midpoint between 100% and the lowest measured viability); higher = less toxic
Vero E6 [2] = assay: as above
U2OS [3] = assay: as above
HepG2 [4] = assay: as above
Calu-3 [5] = assay: as above
Caco-2 [6] = assay: drug sensitivity score (DSS) for viability; higher = more toxic; extreme values may be limits of the assay
Vero E6 [7] = assay: as above
U2OS [8] = assay: as above
HepG2 [9] = assay: as above
Calu-3 [10] = assay: as above
Caco-2 [11] = assay: cell viability relative to DMSO; higher = less toxic
Vero E6 [12] = assay: as above
U2OS [13] = assay: as above
HepG2 [14] = assay: as above
Calu-3 [15] = assay: as above

Row | SMILES | relative viability EC50 (Caco-2 [1]) | relative viability EC50 (Vero E6 [2]) | relative viability EC50 (U2OS [3]) | relative viability EC50 (HepG2 [4]) | relative viability EC50 (Calu-3 [5]) | drug sensitivity score (Caco-2 [6]) | drug sensitivity score (Vero E6 [7]) | drug sensitivity score (U2OS [8]) | drug sensitivity score (HepG2 [9]) | drug sensitivity score (Calu-3 [10]) | cell viability (Caco-2 [11]; 1 nM) | cell viability (Caco-2 [11]; 10 nM) | cell viability (Caco-2 [11]; 100 nM) | cell viability (Caco-2 [11]; 1000 nM) | cell viability (Caco-2 [11]; 10000 nM) | cell viability (Vero E6 [12]; 1 nM) | cell viability (Vero E6 [12]; 10 nM) | cell viability (Vero E6 [12]; 100 nM) | cell viability (Vero E6 [12]; 1000 nM) | cell viability (Vero E6 [12]; 10000 nM) | cell viability (U2OS [13]; 1 nM) | cell viability (U2OS [13]; 10 nM) | cell viability (U2OS [13]; 100 nM) | cell viability (U2OS [13]; 1000 nM) | cell viability (U2OS [13]; 10000 nM) | cell viability (HepG2 [14]; 1 nM) | cell viability (HepG2 [14]; 10 nM) | cell viability (HepG2 [14]; 100 nM) | cell viability (HepG2 [14]; 1000 nM) | cell viability (HepG2 [14]; 10000 nM) | cell viability (Calu-3 [15]; 1 nM) | cell viability (Calu-3 [15]; 10 nM) | cell viability (Calu-3 [15]; 100 nM) | cell viability (Calu-3 [15]; 1000 nM) | cell viability (Calu-3 [15]; 10000 nM)
1 | CC(C)(C)NCC(O)COc1cccc2[nH]c(=O)[nH]c12 (stereo not given) | > 10 µM | > 10 µM | > 10 µM | > 10 µM | > 10 µM | 0 | 0 | 0 | 0 | 0 | 96.7% | 100% | 96.5% | 97% | 97.9% | 98.7% | 97.2% | 97.1% | 103% | 105% | 96.8% | 97% | 97.4% | 97.9% | 101% | 97.7% | 93.3% | 105% | 110% | 113% | 94.9% | 101% | 88.6% | 106% | 106%
2 | CC1(C)N=C(N)N=C(N)N1OCCCOc1cc(Cl)c(Cl)cc1Cl | > 10 µM | > 10 µM | > 10 µM | > 10 µM | > 10 µM | 0 | 0 | 0 | 0 | 0 | 99.7% | 91.5% | 95.5% | 102% | 99.6% | 94.7% | 96.8% | 95.3% | 98% | 108% | 99.3% | 93.9% | 99.1% | 95.7% | 95% | 104% | 93.8% | 93.9% | 99.5% | 98.7% | 100% | 96.1% | 93.8% | 93.7% | 100%
3 | CCCCOc1ccc(C(=O)Nc2ccc(F)cc2F)cc1 | > 10 µM | > 10 µM | > 10 µM | > 10 µM | > 10 µM | 0 | 0 | 0 | 0 | 0 | 105% | 106% | 104% | 92.6% | 96.5% | 99.2% | 102% | 98.4% | 99.7% | 101% | 98.1% | 98.2% | 101% | 96.6% | 99.5% | 100% | 98.2% | 101% | 90.7% | 97.6% | 107% | 97.1% | 109% | 99.2% | 95.5%
4 | CCN(c1cc(C#CCN2CCOCC2)cc(C(=O)NCc2c(C)cc(C)[nH]c2=O)c1C)[C@H]1CC[C@H](N(C)CCOC)CC1 | > 10 µM | > 10 µM | > 10 µM | > 10 µM | > 10 µM | 0 | 0 | 0 | 0 | 0 | 92.5% | 103% | 86.4% | 95.3% | 91.6% | 107% | 96.9% | 95.9% | 96.8% | 102% | 94.3% | 95.7% | 96.4% | 97.7% | 103% | 92.7% | 122% | 112% | 105% | 91.2% | 97.6% | 95.3% | 108% | 103% | 103%
5 | CCn1c(N)c(C(=O)NC)c(=O)c2ccc(C#C[C@@](C)(O)COC)nc21 | > 10 µM | > 10 µM | > 10 µM | > 10 µM | > 10 µM | 0 | 0 | 0 | 0 | 0 | 105% | 92.8% | 104% | 94.2% | 92.5% | 94.1% | 98.6% | 94.8% | 99.1% | 104% | 102% | 96.9% | 98.3% | 97.8% | 97.4% | 92.6% | 102% | 93.2% | 105% | 104% | 89.4% | 100% | 103% | 98.3% | 109%
6 | CN(C)Cc1c(C(=O)NCCOc2ccc(C(=O)NO)cc2)oc2ccccc12 | 0.425 µM | 0.738 µM | 0.292 µM | 0.231 µM | 0.276 µM | 15.6 | 13 | 17.6 | 19 | 16.1 | 90.2% | 101% | 89.2% | 23.6% | 1.4% | 97.4% | 96.2% | 95.7% | 38.2% | -0.1% | 96.9% | 101% | 82.4% | 15.8% | 1.3% | 98.9% | 92.7% | 76.5% | 11.4% | 0.1% | 95.3% | 93.2% | 73.5% | 31.9% | 8.2%
7 | CN(CCOc1ccc(-c2ccc3c(c2)OCO3)cc1C(C)(C)C)CC(=O)O | > 10 µM | > 10 µM | > 10 µM | > 10 µM | > 10 µM | 0 | 0 | 0 | 0 | 0 | 104% | 102% | 94.2% | 92.8% | 89.8% | 99.3% | 97.6% | 97.6% | 95.3% | 98.7% | 93.9% | 98.5% | 97.5% | 101% | 100% | 95.8% | 89.7% | 110% | 92.9% | 110% | 100% | 95.1% | 93.9% | 103% | 107%
8 | CO[C@@H](C)Cn1c(=O)n(C)c2cnc3ccc(-c4cncc(C(C)(C)O)c4)cc3c21 | 0.238 µM | 0.514 µM | 0.331 µM | 0.974 µM | 0.144 µM | 14 | 10.2 | 15.7 | 9.8 | 17.4 | 97.2% | 93.4% | 82.4% | 35.6% | 25.9% | 96.4% | 101% | 87.2% | 54.3% | 28.9% | 108% | 102% | 84% | 25.7% | 8.3% | 94.4% | 99.7% | 95.8% | 56.9% | 14.8% | 108% | 89.8% | 68% | 26.9% | 18%
9 | COc1cc(N2CCC(N(C)C)CC2)ccc1Nc1ncc(Cl)c(Nc2ccccc2P(C)(C)=O)n1 | 1.37 µM | 3.17 µM | 1.9 µM | 1.11 µM | 0.943 µM | 5.6 | 4.1 | 8.2 | 9.2 | 10.9 | 93.9% | 95.2% | 94.8% | 79.4% | 41.9% | 101% | 105% | 103% | 100% | 25.6% | 98.2% | 100% | 102% | 83.4% | 0.5% | 105% | 107% | 92.9% | 61.3% | 14.4% | 97.9% | 97.2% | 93.8% | 51.7% | 5.6%
10 | COc1ccc(CNC(=O)c2sc3nc(C)cc(C)c3c2N)cc1 | > 10 µM | > 10 µM | > 10 µM | > 10 µM | > 10 µM | 0 | 0 | 0 | 0 | 0 | 95.8% | 96.7% | 93.6% | 97.1% | 93.5% | 95.8% | 101% | 106% | 93.2% | 94.4% | 94.1% | 92.1% | 92.5% | 96.4% | 94.7% | 83.3% | 94.4% | 93.9% | 91.9% | 107% | 98.7% | 98.8% | 98.2% | 97.6% | 101%
11 | COc1ccc(Nc2ncnc3ccc(OC)cc23)cc1 | > 10 µM | > 10 µM | > 10 µM | > 10 µM | > 10 µM | 0 | 0.2 | 0 | 0.6 | 1.5 | 105% | 102% | 101% | 99.5% | 91.3% | 102% | 106% | 99.6% | 100% | 85.2% | 101% | 102% | 103% | 99% | 106% | 106% | 98.3% | 93.5% | 93% | 83% | 93.9% | 108% | 95.4% | 89.6% | 77.5%
12 | Cc1cc(NC(=O)Nc2ccc(N(C)C)cc2)c2cc(F)cc(F)c2n1 | > 10 µM | > 10 µM | > 10 µM | > 10 µM | > 10 µM | 0.1 | 0 | 0 | 0.8 | 0 | 100% | 103% | 99.8% | 89.5% | 91.6% | 101% | 95.8% | 100% | 97.9% | 100% | 98.4% | 104% | 99.8% | 103% | 91.9% | 103% | 93.7% | 96.4% | 93.1% | 80.1% | 95.2% | 98.8% | 101% | 105% | 94.7%
13 | Cc1ccc(NC(=O)c2cccc(N(C)C)c2)cc1NC(=O)c1ccc(O)cc1 | > 10 µM | > 10 µM | > 10 µM | > 10 µM | > 10 µM | 0.8 | 0 | 0 | 0.8 | 0 | 101% | 102% | 89% | 93.6% | 81.8% | 101% | 99.8% | 98.4% | 101% | 102% | 104% | 100% | 99.5% | 97% | 104% | 98.8% | 97.7% | 105% | 94.3% | 84.1% | 104% | 104% | 91.7% | 94.7% | 99%
14 | Cn1cc(-c2ccc3nnc(C(F)(F)c4ccc5ncccc5c4)n3n2)cn1 | > 10 µM | > 10 µM | > 10 µM | > 10 µM | > 10 µM | 0 | 0 | 0 | 0 | 0 | 105% | 96% | 95.3% | 95.9% | 92.3% | 99.9% | 107% | 101% | 97.8% | 92.4% | 104% | 101% | 101% | 95.5% | 96.9% | 102% | 94.3% | 105% | 109% | 104% | 97.4% | 104% | 89.6% | 108% | 106%
15 | N=C(C[C@@H](O)COc1ccccc1-c1ccccc1)N1CCCCC1 | > 10 µM | > 10 µM | > 10 µM | > 10 µM | > 10 µM | 0 | 0 | 0 | 0 | 0.2 | 95.7% | 100% | 81.8% | 96.6% | 89.5% | 97.5% | 102% | 96.6% | 96.8% | 102% | 99.9% | 103% | 96.8% | 102% | 92.8% | 92.8% | 94.5% | 109% | 84.4% | 101% | 100% | 98.2% | 90.1% | 104% | 83.6%
